Species on record: Rattus norvegicus
Assay: DrugMatrix - Regimen: Daily Repeat
Assay type: toxicity, organism-based, Sprague-Dawley
Parameters: regimen Daily Repeat, gender Male, age 6-8 weeks
Conditions: in vivo, po, route oral GAVAGE, vehicle 100 % WATER; for ABSOLUTE BASOPHIL / ABSOLUTE EOSINOPHIL / ABSOLUTE LYMPHOCYTE / ABSOLUTE MONOCYTE / ABSOLUTE SEGMENTED NEUTROPHIL / BASOPHIL / EOSINOPHIL / ERYTHROCYTE COUNT / HEMATOCRIT / HEMOGLOBIN / LEUKOCYTE COUNT / LYMPHOCYTE / MEAN CORPUSCULAR HEMOGLOBIN / MEAN CORPUSCULAR HEMOGLOBIN CONCENTRATION / MEAN CORPUSCULAR VOLUME / MONOCYTE / NEUTROPHIL / NUCLEATED RED BLOOD CELLS / PLATELET COUNT: tissue Blood; for ALANINE AMINOTRANSFERASE / ALBUMIN / ALKALINE PHOSPHATASE / ASPARTATE AMINOTRANSFERASE / BLOOD UREA NITROGEN / CARBON DIOXIDE / CHLORIDE / CHOLESTEROL / CREATINE PHOSPHOKINASE / CREATININE / GLUCOSE / LACTATE DEHYDROGENASE / LIPASE / PHOSPHORUS / POTASSIUM / SODIUM / TOTAL BILIRUBIN / TOTAL PROTEIN / URIC ACID: tissue Plasma
[1] = 0 mg/kg, 72 h, dose level Control, time 3 day
[2] = 0 mg/kg, 120 h, dose level Control, time 5 day
[3] = 5 mg/kg, 72 h, dose level Low, time 3 day

COc1cc2nc(N3CCN(C(=O)C4COc5ccccc5O4)CC3)nc(N)c2cc1OC (centres undefined) [DOXAZOSIN]
ABSOLUTE BASOPHIL [1]: 0 CELLS/uL
ABSOLUTE EOSINOPHIL [1]: 86.33 CELLS/uL
ABSOLUTE LYMPHOCYTE [1]: 12090.17 CELLS/uL
ABSOLUTE MONOCYTE [1]: 166.67 CELLS/uL
ABSOLUTE SEGMENTED NEUTROPHIL [1]: 1090.17 CELLS/uL
BASOPHIL [1]: 0%
EOSINOPHIL [1]: 0.67%
ERYTHROCYTE COUNT [1]: 5.57 x10E6/uL
HEMATOCRIT [1]: 35.33%
HEMOGLOBIN [1]: 13.83 G/DL
LEUKOCYTE COUNT [1]: 13.43 x10E3/uL
LYMPHOCYTE [1]: 89.83%
MEAN CORPUSCULAR HEMOGLOBIN [1]: 24.88 pg
MEAN CORPUSCULAR HEMOGLOBIN CONCENTRATION [1]: 39.15 G/DL
MEAN CORPUSCULAR VOLUME [1]: 63.52 fL
MONOCYTE [1]: 1.17%
NEUTROPHIL [1]: 8.33%
NUCLEATED RED BLOOD CELLS [1]: 0 /100WBC
PLATELET COUNT [1]: 1181.33 x10E3/uL
ALANINE AMINOTRANSFERASE [1]: 48.33 u/L
ALBUMIN [1]: 4.1 G/DL
ALKALINE PHOSPHATASE [1]: 395 u/L
ASPARTATE AMINOTRANSFERASE [1]: 81.83 u/L
BLOOD UREA NITROGEN [1]: 15.83 mg/dL
CARBON DIOXIDE [1]: 24.17 mmol/L
CHLORIDE [1]: 103.83 MEQ/L
CHOLESTEROL [1]: 63.67 mg/dL
CREATINE PHOSPHOKINASE [1]: 372.83 u/L
CREATININE [1]: 0.18 mg/dL
GLUCOSE [1]: 173.83 mg/dL
LACTATE DEHYDROGENASE [1]: 188.33 u/L
LIPASE [1]: 9.5 u/L
PHOSPHORUS [1]: 11.95 mg/dL
POTASSIUM [1]: 5.99 MEQ/L
SODIUM [1]: 144.43 MEQ/L
TOTAL BILIRUBIN [1]: 0.15 mg/dL
TOTAL PROTEIN [1]: 5.95 G/DL
URIC ACID [1]: 1.82 mg/dL
ABSOLUTE BASOPHIL [2]: 0 CELLS/uL
ABSOLUTE EOSINOPHIL [2]: 26.67 CELLS/uL
ABSOLUTE LYMPHOCYTE [2]: 7583.83 CELLS/uL
ABSOLUTE MONOCYTE [2]: 131.33 CELLS/uL
ABSOLUTE SEGMENTED NEUTROPHIL [2]: 674.83 CELLS/uL
BASOPHIL [2]: 0%
EOSINOPHIL [2]: 0.33%
ERYTHROCYTE COUNT [2]: 5.78 x10E6/uL
HEMATOCRIT [2]: 36.48%
HEMOGLOBIN [2]: 14.03 G/DL
LEUKOCYTE COUNT [2]: 8.42 x10E3/uL
LYMPHOCYTE [2]: 89.83%
MEAN CORPUSCULAR HEMOGLOBIN [2]: 24.3 pg
MEAN CORPUSCULAR HEMOGLOBIN CONCENTRATION [2]: 38.52 G/DL
MEAN CORPUSCULAR VOLUME [2]: 63.15 fL
MONOCYTE [2]: 1.67%
NEUTROPHIL [2]: 8.17%
NUCLEATED RED BLOOD CELLS [2]: 0 /100WBC
PLATELET COUNT [2]: 1186.67 x10E3/uL
ALANINE AMINOTRANSFERASE [2]: 50.17 u/L
ALBUMIN [2]: 4.07 G/DL
ALKALINE PHOSPHATASE [2]: 367.5 u/L
ASPARTATE AMINOTRANSFERASE [2]: 81.67 u/L
BLOOD UREA NITROGEN [2]: 16.17 mg/dL
CARBON DIOXIDE [2]: 32.33 mmol/L
CHLORIDE [2]: 101.5 MEQ/L
CHOLESTEROL [2]: 65.33 mg/dL
CREATINE PHOSPHOKINASE [2]: 255.33 u/L
CREATININE [2]: 0.17 mg/dL
GLUCOSE [2]: 139.33 mg/dL
LACTATE DEHYDROGENASE [2]: 95 u/L
LIPASE [2]: 10.5 u/L
PHOSPHORUS [2]: 10.38 mg/dL
POTASSIUM [2]: 6.11 MEQ/L
SODIUM [2]: 145.55 MEQ/L
TOTAL BILIRUBIN [2]: 0.17 mg/dL
TOTAL PROTEIN [2]: 5.98 G/DL
URIC ACID [2]: 0.93 mg/dL
ABSOLUTE BASOPHIL [3]: 0 CELLS/uL
ABSOLUTE EOSINOPHIL [3]: 0 CELLS/uL
ABSOLUTE LYMPHOCYTE [3]: 13989.67 CELLS/uL
ABSOLUTE MONOCYTE [3]: 387.67 CELLS/uL
ABSOLUTE SEGMENTED NEUTROPHIL [3]: 2189.33 CELLS/uL
BASOPHIL [3]: 0%
EOSINOPHIL [3]: 0%
ERYTHROCYTE COUNT [3]: 5.22 x10E6/uL
HEMATOCRIT [3]: 34.5%
HEMOGLOBIN [3]: 13.43 G/DL
LEUKOCYTE COUNT [3]: 16.57 x10E3/uL
LYMPHOCYTE [3]: 84.33%
MEAN CORPUSCULAR HEMOGLOBIN [3]: 25.77 pg
MEAN CORPUSCULAR HEMOGLOBIN CONCENTRATION [3]: 38.97 G/DL
MEAN CORPUSCULAR VOLUME [3]: 66.17 fL
MONOCYTE [3]: 2.33%
NEUTROPHIL [3]: 13.33%
NUCLEATED RED BLOOD CELLS [3]: 0 /100WBC
PLATELET COUNT [3]: 1263.33 x10E3/uL
ALANINE AMINOTRANSFERASE [3]: 47.33 u/L
ALBUMIN [3]: 3.93 G/DL
ALKALINE PHOSPHATASE [3]: 317.67 u/L
ASPARTATE AMINOTRANSFERASE [3]: 97 u/L
BLOOD UREA NITROGEN [3]: 16.33 mg/dL
CARBON DIOXIDE [3]: 22 mmol/L
CHLORIDE [3]: 103 MEQ/L
CHOLESTEROL [3]: 59.67 mg/dL
CREATINE PHOSPHOKINASE [3]: 763 u/L
CREATININE [3]: 0.18 mg/dL
GLUCOSE [3]: 187 mg/dL
LACTATE DEHYDROGENASE [3]: 544.33 u/L
LIPASE [3]: 9 u/L
PHOSPHORUS [3]: 11.9 mg/dL
POTASSIUM [3]: 5.79 MEQ/L
SODIUM [3]: 142.7 MEQ/L
TOTAL BILIRUBIN [3]: 0.17 mg/dL
TOTAL PROTEIN [3]: 5.73 G/DL
URIC ACID [3]: 1.7 mg/dL

— ChEMBL document CHEMBL3885881, “DrugMatrix”
